In publication PMC8980814 (The Journal of Biological Chemistry, 2022):

Assays:
Assay in all cases: whole-cell patch clamp, HEK-293T
Type in all cases: cell-based
TCaV1 [1] = biological target: T1, TCaV1 (Trichoplax adhaerens, UniProt A0A8K1XS01); details: for inhibition at 10 µM: read-out: % block at 10 μM
rCaV1.2 [2] = biological target: T2, rCaV1.2 (Rattus norvegicus, UniProt P22002); details: for inhibition at 10 µM: read-out: % block at 10 μM
rCaV1.2 [3] = biological target: T2, rCaV1.2; details: 3 mM external Ca2+, step from -100 mV to 0 mV, pH 7.4, agonist
TCaV1 [4] = biological target: T1, TCaV1; details: 3 mM external Ca2+, step from -100 mV to 0 mV, pH 7.4, agonist

T2 sequence (P22002 whole entry): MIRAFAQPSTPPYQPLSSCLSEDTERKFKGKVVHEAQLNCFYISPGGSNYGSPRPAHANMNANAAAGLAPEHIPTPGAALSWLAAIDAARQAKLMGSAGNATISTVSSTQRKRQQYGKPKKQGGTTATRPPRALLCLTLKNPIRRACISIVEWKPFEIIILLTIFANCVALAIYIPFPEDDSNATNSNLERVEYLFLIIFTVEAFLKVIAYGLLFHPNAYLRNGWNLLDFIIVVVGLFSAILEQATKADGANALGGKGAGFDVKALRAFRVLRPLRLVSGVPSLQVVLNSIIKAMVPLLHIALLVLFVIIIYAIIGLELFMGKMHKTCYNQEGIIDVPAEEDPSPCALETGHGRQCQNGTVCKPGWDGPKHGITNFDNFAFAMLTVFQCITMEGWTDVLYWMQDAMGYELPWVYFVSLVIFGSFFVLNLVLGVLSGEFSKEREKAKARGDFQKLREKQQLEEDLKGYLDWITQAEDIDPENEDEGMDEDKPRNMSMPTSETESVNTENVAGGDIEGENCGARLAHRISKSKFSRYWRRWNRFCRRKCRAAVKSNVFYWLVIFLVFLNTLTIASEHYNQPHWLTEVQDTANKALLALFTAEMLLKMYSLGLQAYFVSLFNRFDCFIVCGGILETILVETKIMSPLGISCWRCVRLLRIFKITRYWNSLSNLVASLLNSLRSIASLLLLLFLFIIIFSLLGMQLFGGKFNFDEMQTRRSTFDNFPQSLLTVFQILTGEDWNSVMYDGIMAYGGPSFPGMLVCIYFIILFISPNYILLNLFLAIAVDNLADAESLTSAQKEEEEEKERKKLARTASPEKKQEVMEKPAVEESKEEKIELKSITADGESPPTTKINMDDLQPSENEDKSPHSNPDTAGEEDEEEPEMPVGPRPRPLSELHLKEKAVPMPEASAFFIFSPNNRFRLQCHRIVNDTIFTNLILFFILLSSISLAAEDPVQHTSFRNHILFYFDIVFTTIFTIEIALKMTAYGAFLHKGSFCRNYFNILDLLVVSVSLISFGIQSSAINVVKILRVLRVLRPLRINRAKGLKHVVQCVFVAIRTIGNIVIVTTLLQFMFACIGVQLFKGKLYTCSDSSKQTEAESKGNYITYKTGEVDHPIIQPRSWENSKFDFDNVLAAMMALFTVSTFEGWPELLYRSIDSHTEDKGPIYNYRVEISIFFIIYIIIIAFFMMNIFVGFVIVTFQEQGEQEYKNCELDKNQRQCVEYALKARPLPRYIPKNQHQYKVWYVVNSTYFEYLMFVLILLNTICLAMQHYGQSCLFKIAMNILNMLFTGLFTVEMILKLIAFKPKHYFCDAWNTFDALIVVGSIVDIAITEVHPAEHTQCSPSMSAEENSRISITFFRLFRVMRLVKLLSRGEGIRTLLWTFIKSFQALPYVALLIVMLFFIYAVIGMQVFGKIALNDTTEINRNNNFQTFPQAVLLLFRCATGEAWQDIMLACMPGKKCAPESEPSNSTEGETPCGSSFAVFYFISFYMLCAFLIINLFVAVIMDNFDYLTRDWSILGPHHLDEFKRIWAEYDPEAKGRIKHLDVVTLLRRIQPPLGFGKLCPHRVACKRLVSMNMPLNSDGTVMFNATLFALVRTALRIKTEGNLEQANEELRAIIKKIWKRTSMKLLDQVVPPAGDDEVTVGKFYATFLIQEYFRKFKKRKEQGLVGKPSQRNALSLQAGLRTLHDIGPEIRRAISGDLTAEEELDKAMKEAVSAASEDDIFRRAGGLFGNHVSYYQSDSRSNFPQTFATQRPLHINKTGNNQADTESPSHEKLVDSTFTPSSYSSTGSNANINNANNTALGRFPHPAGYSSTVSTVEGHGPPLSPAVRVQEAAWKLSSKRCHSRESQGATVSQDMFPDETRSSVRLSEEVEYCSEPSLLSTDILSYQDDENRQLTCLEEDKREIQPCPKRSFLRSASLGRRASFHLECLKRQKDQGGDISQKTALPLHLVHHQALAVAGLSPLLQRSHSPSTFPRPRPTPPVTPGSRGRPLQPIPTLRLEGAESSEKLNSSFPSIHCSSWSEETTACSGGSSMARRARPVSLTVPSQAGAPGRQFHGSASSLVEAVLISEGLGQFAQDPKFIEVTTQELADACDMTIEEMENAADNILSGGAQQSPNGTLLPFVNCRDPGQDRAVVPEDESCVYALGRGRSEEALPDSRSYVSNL
T2 sequence (P54283 whole entry partner): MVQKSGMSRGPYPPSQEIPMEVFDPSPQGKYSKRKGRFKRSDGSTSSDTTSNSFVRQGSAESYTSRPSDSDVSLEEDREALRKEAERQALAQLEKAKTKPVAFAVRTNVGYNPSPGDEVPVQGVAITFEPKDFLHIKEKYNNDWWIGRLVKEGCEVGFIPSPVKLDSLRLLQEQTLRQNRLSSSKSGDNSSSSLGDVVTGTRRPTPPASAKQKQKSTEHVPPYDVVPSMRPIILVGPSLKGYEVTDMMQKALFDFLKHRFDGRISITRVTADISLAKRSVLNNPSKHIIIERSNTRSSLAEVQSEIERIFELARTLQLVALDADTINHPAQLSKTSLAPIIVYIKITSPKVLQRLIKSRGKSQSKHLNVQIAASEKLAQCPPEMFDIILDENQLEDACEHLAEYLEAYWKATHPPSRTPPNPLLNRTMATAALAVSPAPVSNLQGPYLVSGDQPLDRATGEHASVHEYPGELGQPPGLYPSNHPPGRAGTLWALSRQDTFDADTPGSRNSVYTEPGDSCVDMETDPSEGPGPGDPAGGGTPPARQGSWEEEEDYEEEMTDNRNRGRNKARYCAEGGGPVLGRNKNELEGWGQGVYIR
T2 sequence (P54290 25-944 partner): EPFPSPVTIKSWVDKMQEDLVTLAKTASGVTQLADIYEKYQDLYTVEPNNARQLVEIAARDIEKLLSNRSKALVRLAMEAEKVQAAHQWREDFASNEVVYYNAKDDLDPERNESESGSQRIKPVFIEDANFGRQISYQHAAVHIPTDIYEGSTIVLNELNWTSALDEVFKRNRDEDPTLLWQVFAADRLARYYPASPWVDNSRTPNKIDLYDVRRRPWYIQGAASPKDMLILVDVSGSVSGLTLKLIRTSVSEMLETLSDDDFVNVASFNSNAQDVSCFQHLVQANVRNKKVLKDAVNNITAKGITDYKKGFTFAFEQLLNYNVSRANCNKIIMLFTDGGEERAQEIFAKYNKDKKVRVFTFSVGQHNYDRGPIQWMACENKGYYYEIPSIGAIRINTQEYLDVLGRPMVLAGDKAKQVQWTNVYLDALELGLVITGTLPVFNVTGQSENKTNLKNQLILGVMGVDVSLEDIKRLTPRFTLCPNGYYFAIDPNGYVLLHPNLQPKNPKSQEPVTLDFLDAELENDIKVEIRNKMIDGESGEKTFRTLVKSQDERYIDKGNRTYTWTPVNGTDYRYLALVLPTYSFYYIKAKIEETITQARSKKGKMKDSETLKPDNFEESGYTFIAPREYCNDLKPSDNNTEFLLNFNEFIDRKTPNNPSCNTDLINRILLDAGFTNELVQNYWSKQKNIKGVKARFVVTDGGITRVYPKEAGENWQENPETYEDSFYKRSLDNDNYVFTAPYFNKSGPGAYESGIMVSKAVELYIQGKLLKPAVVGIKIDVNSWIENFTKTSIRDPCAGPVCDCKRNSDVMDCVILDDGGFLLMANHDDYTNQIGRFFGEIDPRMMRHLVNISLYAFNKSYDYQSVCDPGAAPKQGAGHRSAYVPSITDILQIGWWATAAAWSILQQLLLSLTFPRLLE
T2 sequence (P54290 945-1091 partner): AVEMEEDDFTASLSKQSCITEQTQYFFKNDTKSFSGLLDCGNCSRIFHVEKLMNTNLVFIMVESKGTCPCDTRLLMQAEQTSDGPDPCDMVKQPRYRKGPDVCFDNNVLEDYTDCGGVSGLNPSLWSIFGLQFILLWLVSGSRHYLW

Compound	inhibition at 10 µM (TCaV1 [1]) [%]	inhibition at 10 µM (rCaV1.2 [2]) [%]	also measured
COC(=O)C1=C(C)NC(C)=C([N+](=O)[O-])[C@@H]1c1ccccc1C(F)(F)F [R(+)BayK 8644]			inhibition at 100 µM (TCaV1 [1]; read-out: % block at 100 μM): 74.2 ± 0.05%; inhibition at 100 µM (rCaV1.2 [2]; read-out: % block at 100 μM): 97.3 ± 0.01%
COC(=O)C1=C(C)NC(C)=C([N+](=O)[O-])[C@H]1c1ccccc1C(F)(F)F [S(-)BayK 8644]			fold-increase in peak current at 5 μM (rCaV1.2 [3]): 1.64 ± 0.32 fold; fold-increase in peak current at 5 μM (TCaV1 [4]): 1.11 ± 0.024 fold
COC(=O)C1=C(C)NC(C)=C(C(=O)OC(C)C)C1c1cccc2nonc12 (centres unmarked) [isradipine]	11.5 ± 2.2	95 ± 6.1	
COC(=O)C1=C(C)NC(C)=C(C(=O)OC)C1c1ccccc1[N+](=O)[O-] [nifedipine]	5.8 ± 3.6	99.7 ± 0.1	
